The text below walks through data of patent publication US8034810B2, “Arylsulfonamido-substituted hydroxamic acid derivatives” (Novartis AG, priority 1999, dated 2011).

Structures can show the parent of a compound that is named as a salt.

The test concerns the target T1, MMP1 (collagenase 1) (Homo sapiens, UniProt P03956).
T1 construct: made in house; host or cells: mouse C127 cells, vector pBPV-MMT, secreted into culture medium
T1 sequence (P03956 100-469): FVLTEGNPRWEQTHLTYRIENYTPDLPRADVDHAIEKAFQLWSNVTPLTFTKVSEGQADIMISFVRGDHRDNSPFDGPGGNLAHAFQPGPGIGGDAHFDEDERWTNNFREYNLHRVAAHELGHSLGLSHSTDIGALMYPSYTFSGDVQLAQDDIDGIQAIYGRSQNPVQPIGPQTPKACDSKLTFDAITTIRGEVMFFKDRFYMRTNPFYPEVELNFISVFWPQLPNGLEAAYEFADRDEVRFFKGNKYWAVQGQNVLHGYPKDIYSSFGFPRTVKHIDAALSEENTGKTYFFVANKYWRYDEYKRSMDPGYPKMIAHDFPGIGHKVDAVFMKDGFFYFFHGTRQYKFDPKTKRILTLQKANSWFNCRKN
Briefly: In vitro inhibition of MMP1 (collagenase 1), fluorogenic peptide substrate. Type of test: biochemical. As to conditions: APMA-activated recombinant human collagenase; substrate 10 μM; 37° C. Here is the method:
The inhibitory activities of compounds of formula I on MT1-MMP, MMP1 (collagenase 1) and MMP2 (gelatinase A) can be determined as follows:
Stock solutions of substrate (MCA-Pro-Leu-Gly-Leu-Dpa-Ala-Arg-NH2, Knight, C. G., Willenbrock, F., Murphy, G., A novel coumarin-labelled peptide for sensitive continuous assays of the matrix metalloproteinases, FEBS lett., 296, 263-266, (1992)), are prepared in 100% DMSO at a concentration 1.0 mM. Stock solutions of inhibitors are prepared in 100% DMSO. The inhibitor is diluted into the assays from a solution in 100% DMSO, and controls substitute an equal volume of DMSO so that the final DMSO concentration from inhibitor and substrate dilutions in all assays is 6.0%. Assays are performed in assay buffer (150 mM NaCl, 10 mM CaCl2, 50 mM Tris-Cl pH7.5, 0.05% Brij-35) containing 6.0% DMSO once the substrate and inhibitor are diluted into it. The substrate concentration used in the assays is 10 μM. The test is carried out at 37° C. The fluorescence changes are monitored using an excitation wavelength of 320 nm and an emission wavelength of […]. The reaction mixture is added in duplicate to appropriate wells of a 96 well microfluor plate. The reaction mixture is preincubated with the inhibitor for 30 min, the reaction is started by the addition of MMP enzyme and the fluorescence intensity is measured for 10 min. A time point that is on a linear part of the curve is chosen to determine the activity. The inhibition results are expressed as the inhibitor concentrations that produced 50% inhibition (IC50) of the activity in the control (non-inhibited) reaction. In this test, the compounds of the formula I and their pharmacologically acceptable salts have an inhibiting concentration IC50 [μmol/litre] of 0.0001 and 0.030, usually of 0.0002 to 0.010, for MMP2 and an inhibiting concentration IC50 [μmol/litre] of 0.0005 and 0.125, usually of 0.001 to 0.05, for MT1-MMP.
Plasmid: The cDNA for human collagenase is generated by PCR of cDNA derived from RNA isolated from human U937 cells (ATCC# CRL-2367). The primers, used to generate this cDNA, are […] and AAGGCGGCCGCA […], corresponding to nucleotides 58 to 1526 of the reported cDNA sequence, GenBank accession number X05231. The resulting cDNA fragment is subcloned into Not I site of a mammalian expression vector pBPV-MMT (Matthias, P. et al., J. Mol. Biol. 1986, 187(4):557-68).
C127 cells (ATCC-mouse mammary tumor cell line) are grown in Dulbecco's Modified Essential Medium supplemented with 10% heat inactivated fetal bovine serum and 1× antibiotic-antimycotic solution at 37° C. in a humidified CO2 incubator. Cells seeded at 8×10^5 in 100 mm dishes are transfected using a calcium phosphate precipitation method. 5 h prior to transfection, medium is replaced with fresh medium. Each dish is transfected with 15 μg of the expression vector. Cells are washed twice with PBS 16-18 h after transfection and are incubated in growth medium for an additional 48 h. Clones are then selected by incubation with the Neomycin related antibiotic G418 at a concentration of 400 μg/ml. Media from selected clones are analyzed for collagenase expression by an enzymatic assay. Expression and Purification: 16 liters of culture medium are concentrated to 1.6 liters and the enzyme is isolated by the procedures described by Wilhelm et al. (Proc. Natl. Acad. Sci. (USA). 1987; 84: 6725-29). The final product is further purified on a Superose G-75 (Pharmacia/LKB, Piscataway, N.J.) gel filtration column equilibrated in the assay buffer containing 0.15 M NaCl. Enzyme is pooled and stored in aliquots at −70° C. Recombinant procollagenase (43-45 kDa) is activated with 1 mM APMA (Aminophenylmercuric acetate, ICN Pharmaceuticals) for 2 h at 37° C., and the APMA is removed by extensive dialysis against the assay buffer containing 0.15M NaCl. The activated enzyme (˜36-kDa) is stored frozen at −70° C. until use.
Regarding “2-[(Cyclopropylmethoxy-benzenesulfonyl)-(4-[1,2,4]triazol-1-yl-benzyl)-amino]-N-hydroxyacetamide-hydrochloride salt [Example 82b]”, the IC50 is 0.965 µM. With `COc1ccc(CN(CC(=O)NO)S(=O)(=O)c2ccc(OCCCCl)cc2)cc1` [Example 68, 2-{[4-(3-chloro-propoxy)-benzenesulfonyl]-(4-methoxy-benzyl)amino}-N-hydroxy-acetamide] the figure was 0.622 µM. For `C#CCOc1ccc(S(=O)(=O)N(CC(=O)NO)Cc2ccc(OC)cc2)cc1` [Example 75, [(4-methoxy-benzyl)-[4-prop-2-ynyloxy-benzenesulfonyl]-amino]-N-hydroxy-acetamide], the IC50 stood at 0.069 µM. The figure for `C=CCCOc1ccc(S(=O)(=O)N(CC(=O)NO)Cc2ccc(-n3cncn3)cc2)cc1` [Example 79, 2-[(4-but-3-enyloxy-benzenesulfonyl)-(4-[1,2,4]triazol-1-yl-benzyl)-amino]-N-hydroxy-acetamide-hydrochloride salt] is 5.85 µM; for `C=CCCOc1ccc(S(=O)(=O)N(CC(=O)NO)Cc2ccc(-n3ccnc3)cc2)cc1` [Example 80, 2-[(4-But-3-enyloxy-benzenesulfonyl)-(4-imidazol-1-yl-benzyl)-amino]-N-hydroxy-acetamide-hydrochloride] it is 2.61 µM; for `C=CCCOc1ccc(S(=O)(=O)N(CC(=O)NO)Cc2ccc(N3CCOCC3)cc2)cc1` [Example 81, 2-[(4-But-3-enyloxy-benzenesulfonyl)-(4-morpholin-4-yl-benzyl)-amino]-N-hydroxy-acetamide-hydrochloride] it is 4.29 µM. Take `O=C(CN(Cc1ccc(-n2cncn2)cc1)S(=O)(=O)c1ccc(OCCC2CC2)cc1)NO` [Example 82a]: the IC50 was 4.21 µM. The figure for `O=C(CN(Cc1ccc(-n2cncn2)cc1)S(=O)(=O)c1ccc(OCc2ccoc2)cc1)NO` [Example 82c] is 5.1 µM; for `C=CCCOc1ccc(S(=O)(=O)N(CC(=O)NO)Cc2cccc(F)n2)cc1` [Example 83a, 2-([4-But-3-enyloxy-benzenesulfonyl]-(6-fluoro-pyridine-2-yl)methyl-amino)-N-hydroxyacetamide] it is 3.69 µM. The figure for `C=CCCOc1ccc(S(=O)(=O)N(CC(=O)NO)Cc2ccc(N3CCCC3)cc2)cc1` [Example 84a, 2-[(4-But-3-enyloxy-benzenesulfonyl)-(4-(pyrrolidin-1-yl)-benzyl)-amino]-N-hydroxyacetamide-hydrochloride] is 5.53 µM.
